Data taken from patent US9139596B2, “Cyclic prodrugs of duocarmycin analogs” (The Scripps Research Institute, priority 2012, dated 2015).
pIC50: −log10 of the molar value. Read-outs that look alike come from different tables or passages of the source.

Assays:
[1] = tested on: L1210 murine leukemia cell line; test: In vitro cytotoxic activity (cell growth inhibition), L1210; assay type: cell-based
Experimental: In Vitro Cytotoxic Activity. Both (+)- and ent-(−)-6 and their N-Boc precursors 16 were tested for cell growth inhibition in a cytotoxic assay with the L1210 murine leukemia cell line.

[2] = tested on: L1210 murine leukemia cells implanted ip; test: In vivo antitumor activity (L1210, ip); conditions: for Surviving Mice: live animals after 250 days
Experimental: Therefore, the in vivo antitumor activity of (+)-6 was assessed alongside seco-CBI-indole2 (4) in an antitumor model consisting of L1210 murine leukemia cells implanted ip into […] which has been used historically as an initial antitumor model for comparisons in this class.^11,12,14,15 A dose range of 300 to 9000 μg/kg for prodrug (+)-6 (scaled to its in vitro cytotoxic activity IC50) and 60 to 500 μg/kg for seco-CBI-indole2 (4) and a dosing schedule (administered three times ip on days 1, 5, and 9) for both compounds was employed.
B6D2F1 mice were injected intraperitoneal (i.p.) with syngeneic L1210 cells (1×10^6) on day 0. Ten mice were randomly assigned to control vehicle or treatment groups for compounds (+)-4 and (+)-6 at doses of 60, 100, 250, and 500 μg/kg/inj for (+)-4 or 300, 1000, 3000, and 9000 μg/kg/inj for (+)-6. Compounds (+)-4 and (+)-6 were formulated in 100% DMSO, and injected i.p. on study days 1, 5, and 9. Following injection of tumor cells, animals were monitored daily and weighed two times per week. Percent survival (T/C) for treated and control groups were determined by dividing the total survival days for each treatment group by the total survival days for the control group and multiplying ×100. All animal studies were carried out in the animal facilities of The University of Kansas Medical Center with strict adherence to the guidelines of the IACUC Animal Welfare Committee of KUMC (IACUC approval #2009-1837).

[3] = tested on: L1210 murine leukemia cells implanted ip; conditions: previously established; cited from earlier work
[4] = Chemical reactivity of N-Boc-prodrug 16 under acidic, basic and nucleophilic conditions; assay type: physicochemical
Experimental: In order to determine the ability of the free drug to be released under physiological conditions, the chemical reactivity of N-Boc-prodrug 16 was assessed under a variety of acidic, basic, and nucleophilic conditions.

Solvolysis of 21 = assay type: physicochemical; conditions: 25° C., UV 255 nm; for half-life: CH3OH / aqueous citrate-phosphate buffer, read-out: solvolysis t1/2 (converted); for solvolysis rate constant k: CH3OH
Experimental: Compound 21 was dissolved in CH3OH (1.5 mL). […] After mixing, the solvolysis solutions were stoppered and kept at 25° C. in the dark. The UV spectrum of the solutions was measured 3-4 times in the first two days and once a day for 2-4 weeks. The UV monitoring was continued until no further change was detectable. The long-wavelength absorption at 380 nm and short-wavelength absorption at 255 nm were monitored. The solvolysis rate constant and half-life were calculated from the data recorded at the short wavelength (255 nm) from the least square treatment of the slopes of plots of time versus ln [(AFinal−Ainitial)/(Afinal−A)].

[5] = calf serum; cited from earlier work
[6] = tested on: L1210 murine leukemia cell line; conditions: L1210, natural enantiomer, literature ref 9; cited from earlier work
[7] = human, plasma; cited from earlier work
[8] = Mus musculus, L1210, read-out: IC50 L1210 natural, natural enantiomer, Table 2
[9] = Mus musculus, L1210, read-out: IC50 L1210 unnatural, unnatural enantiomer, Table 2
[10] = Mus musculus, L1210, read-out: In vitro IC50 L1210 natural, natural (S)-enantiomer, Table 4
[11] = Mus musculus, L1210, read-out: In vitro IC50 L1210 unnatural, unnatural (R)-enantiomer, Table 4
[12] = 60 μg/kg i.p. on days 1, 5, and 9
[13] = 100 μg/kg i.p. on days 1, 5, and 9
[14] = 250 μg/kg i.p. on days 1, 5, and 9
[15] = 500 μg/kg i.p. on days 1, 5, and 9
[16] = pH 1 buffer (: 0.2 M Na2HPO4: H2O 4:1:20)
[17] = pH 2 buffer (1.0 M citric acid: 0.2 M Na2HPO4: H2O 4:1:20)
[18] = natural (S)-enantiomer, Table 4

For `COC(=O)c1cc2c([nH]1)C(=O)C=C1N(C(=O)c3cc4cc(OC)c(OC)c(OC)c4[nH]3)CC3CC123` (stereo not drawn) [Compound 1, Duocarmycin SA, reference compound], the pIC50 [1, 8] was 11.00, the pIC50 [1, 9] was 10.00 and the pIC50 [1, 10] was 11.00. For the same molecule, the pIC50 [1, 11] was 10.00.

Molecule `COc1c(O)c2c(c3cc(C(=O)N4CCc5c4c(O)c(OC)c4[nH]c(C(=O)N6CC7CC78C6=CC(=O)c6[nH]cc(C)c68)cc54)[nH]c13)CCN2C(N)=O` (stereo not drawn) [Compound 2, CC-1065, reference compound] has a pIC50 ([1]; Mus musculus, L1210, natural (S)-enantiomer, Table 4, read-out: In vitro IC50 L1210 natural) of 10.70, a pIC50 ([1]; Mus musculus, L1210, natural enantiomer, Table 2, read-out: IC50 L1210 natural) of 10.70 and a pIC50 ([1]; Mus musculus, L1210, unnatural (R)-enantiomer, Table 4, read-out: In vitro IC50 L1210 unnatural) of 10.70. For the same molecule, the pIC50 ([1]; Mus musculus, L1210, unnatural enantiomer, Table 2, read-out: IC50 L1210 unnatural) was 10.70.

`O=C(Nc1ccc2[nH]c(C(=O)N3C[C@@H](CCl)c4c3cc(O)c3ccccc43)cc2c1)c1cc2ccccc2[nH]1` [Compound 4, seco-CBI-indole2, reference compound] showed a pIC50 ([1]; L1210, free drug, natural enantiomer, read-out: IC50) of 10.52, a pIC50 ([1]; natural (S)-enantiomer, Table 4, read-out: In vitro IC50 L1210 natural) of 10.52 and a pIC50 ([1]; natural enantiomer, Table 2, read-out: IC50 L1210 natural) of 10.52. The pIC50 ([1]; unnatural (R)-enantiomer, Table 4, read-out: In vitro IC50 L1210 unnatural) was 9.05, the pIC50 ([1]; unnatural enantiomer, Table 2, read-out: IC50 L1210 unnatural) was 9.05 and the “MSP (Mean Survival Period)” value [2, 12] was greater than 34.7 days. For the same molecule, the “T/C (Treated/Control MSP x 100)” value [2, 12] was greater than 197, the “Surviving Mice” value [2, 12] was 1/10 and the “MSP (Mean Survival Period)” value [2, 13] was 6.4 days. For the same molecule, the “T/C (Treated/Control MSP x 100)” value [2, 13] was 36, the “Surviving Mice” value [2, 13] was 0/10 and the “MSP (Mean Survival Period)” value [2, 14] was 3.7 days. For the same molecule, the “T/C (Treated/Control MSP x 100)” value [2, 14] was 21, the “Surviving Mice” value [2, 14] was 0/10 and the “MSP (Mean Survival Period)” value [2, 15] was 3.0 days. The “T/C (Treated/Control MSP x 100)” value [2, 15] was 17, the “Surviving Mice” value [2, 15] was 0/10 and the “toxicity leading to premature death of the animals” value ([2]; doses of 100-500 μg/kg i.p. on days 1, 5, and 9) was “toxic”. For the same molecule, the optimal dose range [3] was 0.06 to 0.1 mg/kg.

For `CC(C)(C)OC(=O)N1C[C@@H](CCl)c2c1cc1c3c(cccc23)NC(=O)O1` [Compound 16, tert-Butyl 10-(Chloromethyl)-5-oxo-9,10-dihydro-4H-pyrrolo[3′,2′:5,6]naphtho[1,8-de][1,3]oxazine-8(5H)-carboxylate], the “fold less active than N-Boc-CBI” value ([1]; L1210) was 50-100 fold, the pIC50 [1, 8] was 5.31 and the pIC50 [1, 9] was 5.24. The “stability of the cyclic carbamate to hydrolysis under acidic conditions” value ([4]; 1:1 TFA:CH2Cl2, 4 N HCl in EtOAc, 48 h at 23° C., Boc group cleaved) was “stable”, the “stability to BnNH2” value ([4]; BnNH2 (100 equiv) in MeOH, 24 h) was “rapidly cleaved” and the “stability to BnNH2” value ([4]; BnNH2 in THF) was “stable”. The “stability in the presence of nucleophiles BnSH and BnOH” value ([4]; BnSH and BnOH (100 equiv) in MeOH and THF at 23° C. for 48 h) was “completely stable”.

In the case of `Nc1cccc2c1C(=O)C=C1N(C(=O)c3cc4cc(NC(=O)c5cc6ccccc6[nH]5)ccc4[nH]3)CC3CC123` (stereo not drawn) [Compound 20, N-(2-(5-Amino-4-oxo-1,2,9,9a-tetrahydrocyclopropa[c]benzo[e]indole-2-carbonyl)-1H-indol-5-yl)-1H-indole-2-carboxamide], the “fold less active than 4 (active enantiomer)” value ([1]; L1210, inferred from the racemate IC50) was 3-4 fold and the pIC50 ([1]; L1210, racemic parent drug, read-out: IC50) was 9.68.

In the case of `CC(C)(C)OC(=O)N1CC2CC23C1=CC(=O)c1c(N)cccc13` (stereo not drawn) [Compound 21, N-tert-Butyloxycarbonyl-5-amino-1,2,9,9a-tetrahydrocyclopropa[c]benzo[e]indole-4-one], the half-life (Solvolysis of 21; [16]) was 8.52 h, the half-life (Solvolysis of 21; [17]) was 40.3 h and the “solvolysis rate constant k” value (Solvolysis of 21; [16]) was 1.5e-05 s⁻¹. For the same molecule, the “solvolysis rate constant k” value (Solvolysis of 21; [17]) was 5e-06 s⁻¹.

In the case of `N=C1Nc2cccc3c4c(cc(c23)O1)N(C(=O)c1cc2cc(NC(=O)c3cc5ccccc5[nH]3)ccc2[nH]1)C[C@H]4CCl` [Compound 24, (S)—N-(2-(10-(chloromethyl)-5-imino-5,8,9,10-tetrahydro-4H-pyrrolo[3′,2′,5,6]naphtho[1,8-de][1,3]oxazine-8-carbonyl)-1H-indol-5-yl)-1H-indole-2-carboxamide], the pIC50 [1, 10] was 9.30, the pIC50 [1, 11] was 7.19 and the “In vitro IC50 L1210 natural” value [1, 18] was “in the nanomolar range”.

In the case of `O=C(Nc1ccc2[nH]c(C(=O)N3C[C@@H](CCl)c4c3cc3c5c(cccc45)NC(=S)O3)cc2c1)c1cc2ccccc2[nH]1` [Compound 25, (S)—N-(2-(10-(chloromethyl)-5-thioxo-5,8,9,10-tetrahydro-4H-pyrrolo[3′,2′,5,6]naphtho[1,8-de][1,3]oxazine-8-carbonyl)-1H-indol-5-yl)-1H-indole-2-carboxamide], the pIC50 [1, 10] was 9.54, the pIC50 [1, 11] was 7.21 and the “In vitro IC50 L1210 natural” value [1, 18] was “in the nanomolar range”.

For `O=C(Nc1ccc2[nH]c(C(=O)N3C[C@@H](CCl)c4c3cc3c5c(cccc45)N=C(SCCN4C(=O)c5ccccc5C4=O)O3)cc2c1)c1cc2ccccc2[nH]1` [Compound 29, (S)—N-(2-(10-(chloromethyl)-5-((2-(1,3-dioxoisoindolin-2-yl)ethyl)thio)-9,10-dihydro-8H-pyrrolo[3′,2′:5,6]naphtho[1,8-de][1,3]oxazine-8-carbonyl)-1H-indol-5-yl)-1H-indole-2-carboxamide], the pIC50 [1, 10] was greater than 7.00 and the pIC50 ([1]; read-out: In vitro IC50 L1210 natural, natural (S)-enantiomer, Table 4) was 7.08.

In the case of `COC(=O)c1c(C)[nH]c2c(OC(=O)N3CCN(C)CC3)cc3c(c12)[C@H](CBr)CN3C(=O)c1cc2cc(OC)c(OC)c(OC)c2[nH]1` [KW-2189], the t1/2 [5] is listed as 20 h.

For `CC(C)(C)OC(=O)N1CC2CC23C1=CC(=O)c1ccccc13` (stereo not drawn) [N-Boc-CBI], the pIC50 [6] is given as 7.10.

In the case of `CCN(CC)c1ccc2cc(C(=O)Nc3ccc4[nH]c(C(=O)N5C[C@@H](CCl)c6c5cc(OC(=O)Nc5ccccc5)c5[nH]cc(C)c65)cc4c3)oc2c1` [carzelesin], the t1/2 [7] is listed as less than 1 h.
